Data from patent US10532065B2, “Bisphosphonic acid derivative and application for same” (NAGASAKI UNIVERSITY, priority 2014, dated 2020).
pEC50, pIC50: −log10 of the molar value. Like-named read-outs stand apart in the source and are kept apart here.

Experiments:
Type in all cases: cell-based
U937 cells = test: U937 cell growth inhibition (direct antitumor action, CellTiterGlo); conditions: for pIC50: U937 cell growth inhibition, 4 days culture
Protocol: (§1) The direct antitumor action of bisphosphonic acid POM ester and bisphosphonic acid was studied by comparison using U937.
(§2) The direct antitumor action of various bisphosphonic acid POM esters was studied by comparison using U937 and EJ-1. The measurement was performed according to Experimental Example 2 and Experimental Example 4.

EJ-1 cells = test: EJ-1 cell growth inhibition (direct antitumor action, CellTiterGlo); conditions: for pIC50: EJ-1 (bladder cancer) growth inhibition, 4 days culture
Protocol: as §1
(§3) The direct antitumor action of bisphosphonic acid POM ester derivatives and bisphosphonic acids was studied by comparison using EJ-1. It was performed in the same manner as in Experimental Example 1 except that EJ-1 was used as the cell to be used. For recovery of the cells, a conventional EDTA trypsin treatment was performed.
as §3, with “POM esters” for “POM ester derivatives”, “Example 2” for “Example 1”
as §2

EJ-1 cells / γδ T cells = test: TNF-α production from γδ T cells stimulated by compound-pretreated EJ-1 cells (indirect antitumor action, ELISA); conditions: for pEC50: EJ-1 pretreated 4 hr with compound, 16 hr with γδ T cells, TNF-α ELISA, read-out: TNF-α50
Protocol: The indirect antitumor action of bisphosphonic acid POM esters and bisphosphonic acids was studied by comparison using EJ-1. In principle, EJ-1 is treated with a compound, washed, and reacted with γδ T cells, and the cytotoxic ability is studied by comparison, by quantifying TNF-α produced by γδ T cells during cell disordering. TNF-α is generally used as an index of γδ T cell induction ability and/or proliferative capacity, and γδ T cells are considered to be induced and/or proliferated in proportion to the TNF-α amount (Journal of Immunology, 154, 5986-5994 (1995)). Since the produced TNF-α is what is called a tumor necrosis factor, it is considered to have an action to lower proliferation of cancer cells or induce cell death.
Thereto was added a solution (500 μl) of compounds 3, 5, 6, 7, which are bisphosphonic acid POM ester derivatives, obtained by serially diluting 10 mM stock solution 10-fold from 20 μM, or a solution (500 μl) of bisphosphonic acid 10, 12, 13, 14 compound obtained by serially diluting 10-fold from 200 μM, and the cells were suspended well. These conical tubes were stood at 37° C. for 4 hr, and the cells were washed 3 times with 5 ml of culture medium. To these cells was added 500 μl of medium, and the cells were suspended well. […] The cell culture medium was suspended well, and the plate was centrifuged at 1,700 rpm, 4° C. for 2 min and the culture supernatant (150 μl) was taken and placed in another round-bottomed 96 well plate. The plate was frozen at −80° C. overnight, left standing at room temperature for 1 hr, stirred well and 100 μl thereof was subjected to ELISA of TNF-α. The content of TNF-α was calculated from the analytical curve of TNF-α. These were performed in triplicate, and a graph showing bisphosphonic acid POM ester derivative and the corresponding bisphosphonic acid as one pair was plotted. […] The results of bisphosphonic acid POM ester derivative are shown by -●-, and the results of bisphosphonic acid are shown by -◯-.
The indirect antitumor action of bisphosphonic acid POM esters and bisphosphonic acids was quantitatively studied by comparison using EJ-1. […] Thereto was added a solution (500 μl) of a bisphosphonic acid POM ester derivative obtained by serially diluting 10 mM stock solution 10-fold from 20 μM, or a bisphosphonic acid solution (500 μl) serially diluted 10-fold from 200 μM was added, and the cells were suspended well. These conical tubes were stood at 37° C. for 4 hr, and the cells were washed 3 times with 5 ml of culture medium. To these cells was added 500 μl of medium, and the cells were suspended well. […] The cell culture medium was suspended well, and the plate was centrifuged at 1,700 rpm, 4° C. for 2 min and the culture supernatant (150 μl) was taken and placed in another round-bottomed 96 well plate. The plate was frozen at −80° C. overnight, left standing at room temperature for 1 hr, stirred well and 100 μl thereof was subjected to ELISA of TNF-α. The content of TNF-α was calculated from the analytical curve of TNF-α. These were performed in triplicate, and a half of the concentration of compounds 1-7, which are bisphosphonic acid POM ester derivatives, and compounds 8-14, which are bisphosphonic acids, necessary for producing the maximum amount of TNF-α from γδ T cells was calculated as TNF-α50, and summarized in Table 6.
Therefore, the TNF-α50 value of various bisphosphonic acid POM ester derivatives was calculated. […] Thereto was added a solution (500 μl) of compounds 1-7 and 15-39, which are bisphosphonic acid POM ester derivatives, and compound 42, which is other bisphosphonic acid ester derivative, obtained by serially diluting 10 mM stock solution 10-fold from 20 μM, and the cells were suspended well. These conical tubes were stood at 37° C. for 4 hr, and the cells were washed 3 times with 5 ml of culture medium. To these cells was added 500 μl of medium, and the cells were suspended well. […]

## CC(C)(C)C(=O)OCOP(=O)(OCOC(=O)C(C)(C)C)C(CNc1ccncn1)P(=O)(OCOC(=O)C(C)(C)C)OCOC(=O)C(C)(C)C [Compound 39, tetrakispivaloyloxymethyl 2-(pyrimidin-4-ylamino)ethylidene-1,1-bisphosphonate]
U937 cells
  pIC50: 6.19
U937 cells; U937 growth inhibition
  direct antitumor activity (in words): particularly high activity
EJ-1 cells
  pIC50: 7.23
EJ-1 cells; EJ-1 growth inhibition
  direct antitumor activity (in words): particularly high activity
EJ-1 cells / γδ T cells
  pEC50: 7.21
EJ-1 cells / γδ T cells; EJ-1 pretreated with compound, γδ T cells
  TNF-α production induction activity (in words): high activity

## CC(=O)OCOP(=O)(OCOC(C)=O)C(CNc1ccccn1)P(=O)(OCOC(C)=O)OCOC(C)=O [Compound 42, tetrakisacetyloxymethyl 2-(pyridin-2-ylamino) ethylidene-1,1-bisphosphonate]
U937 cells; Homo sapiens, U-937, 96 h
  pIC50: 4.77
EJ-1 cells; EJ1, 96 h
  pIC50: 4.80
EJ-1 cells / γδ T cells; EJ1
  pEC50: 5.15
